Four compounds from ChEMBL document CHEMBL1201862, “PubChem BioAssay data set” (2004) can be followed below.

pEC50: −log10 of the molar value. The source made the active and inactive calls.

Assay [1] addresses T1, Kappa-type opioid receptor (Homo sapiens, UniProt P41145). It counts as functional.
Assay [2] deals with T2, Fatty acid synthase (Homo sapiens, UniProt P49327). The experiment in a line: FAS thioesterase domain inhibitors, dose response, biochemical, endpoint fluorescence intensity, uHTS hits (AID 624327).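 Also: fluorescence from hydrolysis of an O-methyl fluorescein acyl ester substrate by the enzyme.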 It counts as functional.
In the next assay the target is Mu-type opioid receptor (Homo sapiens, UniProt P35372). The experiment in a line: HTS Image-Based Screen for Agonists of the MOR Receptor. [Related pubchem assays (depositor defined):AID1777, AID1785, AID1786, AID2133]. The format is functional.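 Also: imaging of beta-arrestin GFP recruitment into spots after receptor activation.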
For assay [3], the target named is T3, Delta-type opioid receptor (Homo sapiens, UniProt P41143). Briefly: HTS Image-Based Screen for Antagonists of the DOR Receptor. [Related pubchem assays (depositor defined):AID1777, AID1785, AID1786, AID2133]. The format is functional.
In assay [4] the target is T1, Kappa-type opioid receptor. It counts as functional. The source holds these as a separate data set.
Assay [5] deals with T2, Fatty acid synthase. The experiment in a line: FAS thioesterase domain inhibitors, dose response, biochemical, kinetic fluorescence intensity (AID 624326).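 Also: rate of fluorescence rise from hydrolysis of a fluorogenic O-methyl fluorescein ester substrate.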 The format is functional.
Assay [6] has as its target T3, Delta-type opioid receptor. The experiment in a line: HTS Image-Based Screen for Agonists of the DOR Receptor. [Related pubchem assays (depositor defined):AID1777, AID1786, AID2133]. The format is functional.
Assay [7] deals with T4, SUMO-activating enzyme (Homo sapiens, UniProt Q9UBT2). The experiment in a line: inhibitors of in vitro SUMOylation cascade, primary screen, biochemical, HTRF, uHTS (AID 2006). It counts as protein-complex assay.
Another assay addresses T5, Protein RecA (Mycobacterium tuberculosis, UniProt P9WHJ3).
T5 sequence (P9WHJ3 whole entry): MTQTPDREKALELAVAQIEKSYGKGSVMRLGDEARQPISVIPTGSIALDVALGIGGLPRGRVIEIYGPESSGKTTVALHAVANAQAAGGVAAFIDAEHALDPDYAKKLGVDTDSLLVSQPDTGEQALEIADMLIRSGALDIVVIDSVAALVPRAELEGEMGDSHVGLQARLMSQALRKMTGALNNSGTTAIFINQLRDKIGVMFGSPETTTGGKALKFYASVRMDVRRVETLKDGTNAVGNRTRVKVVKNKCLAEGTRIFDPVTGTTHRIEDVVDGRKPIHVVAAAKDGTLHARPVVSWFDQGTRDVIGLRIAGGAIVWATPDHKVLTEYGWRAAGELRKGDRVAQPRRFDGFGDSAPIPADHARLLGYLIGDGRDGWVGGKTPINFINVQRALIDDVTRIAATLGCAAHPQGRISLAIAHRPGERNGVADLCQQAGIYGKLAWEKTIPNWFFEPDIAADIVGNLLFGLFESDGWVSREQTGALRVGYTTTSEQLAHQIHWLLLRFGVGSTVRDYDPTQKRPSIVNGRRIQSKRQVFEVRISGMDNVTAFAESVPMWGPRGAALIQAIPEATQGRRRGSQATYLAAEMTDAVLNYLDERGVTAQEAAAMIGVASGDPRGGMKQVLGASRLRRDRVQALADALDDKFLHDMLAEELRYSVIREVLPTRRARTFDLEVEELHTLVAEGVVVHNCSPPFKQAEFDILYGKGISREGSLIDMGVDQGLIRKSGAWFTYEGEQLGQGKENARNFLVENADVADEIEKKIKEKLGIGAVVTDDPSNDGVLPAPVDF
Briefly: Fluorescence Cell-Free Homogeneous Dose Retest to Identify Inhibitors of RecA-Intein Splicing Activity. [Related pubchem assays (depositor defined):AID2097, AID2223, AID489010, AID492950]. The format is functional.

The target of assay [8] is T6, Replicative DNA helicase DnaB (Mycobacterium tuberculosis, UniProt P9WMR3).
T6 sequence (P9WMR3 whole entry): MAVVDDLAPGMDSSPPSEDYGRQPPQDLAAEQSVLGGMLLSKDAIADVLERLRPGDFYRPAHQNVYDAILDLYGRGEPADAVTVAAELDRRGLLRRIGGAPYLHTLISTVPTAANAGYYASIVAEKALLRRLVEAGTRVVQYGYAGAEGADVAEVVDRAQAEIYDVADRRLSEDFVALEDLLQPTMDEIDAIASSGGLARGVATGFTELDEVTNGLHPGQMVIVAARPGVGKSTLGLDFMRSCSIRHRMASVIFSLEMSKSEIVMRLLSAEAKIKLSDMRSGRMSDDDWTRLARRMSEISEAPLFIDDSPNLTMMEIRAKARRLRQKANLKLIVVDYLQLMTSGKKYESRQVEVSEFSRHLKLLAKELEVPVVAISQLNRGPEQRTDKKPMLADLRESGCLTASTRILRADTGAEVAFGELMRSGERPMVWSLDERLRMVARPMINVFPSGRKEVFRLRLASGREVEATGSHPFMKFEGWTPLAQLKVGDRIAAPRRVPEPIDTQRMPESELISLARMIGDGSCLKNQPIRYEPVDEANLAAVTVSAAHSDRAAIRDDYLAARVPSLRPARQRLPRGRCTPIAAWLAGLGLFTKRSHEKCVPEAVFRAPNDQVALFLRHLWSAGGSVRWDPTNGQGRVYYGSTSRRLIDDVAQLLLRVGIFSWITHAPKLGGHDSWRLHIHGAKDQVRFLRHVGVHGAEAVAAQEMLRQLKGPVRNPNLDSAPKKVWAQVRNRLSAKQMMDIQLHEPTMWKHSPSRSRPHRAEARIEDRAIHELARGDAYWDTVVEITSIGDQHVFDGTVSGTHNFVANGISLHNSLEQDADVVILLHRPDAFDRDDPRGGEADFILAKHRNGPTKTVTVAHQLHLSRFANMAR
The experiment in a line: DnaB intein splicing inhibitors, dose response, biochemical, cell-free fluorescence (AID 449749). The format is functional.

Assay [9] has as its target T4, SUMO-activating enzyme. The experiment in a line: SUMOylation inhibitor hit validation, confirmation, SUMOylation inhibitor project, biochemical, AlphaScreen (AID 2018). It counts as functional.
Assay [10] deals with Eukaryotic translation initiation factor 4E (Mus musculus, UniProt P63073). Briefly: eIF4E–eIF4G protein interaction inhibitors, dose response, biochemical, TR-FRET (AID 855).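 Also: potency for disrupting eIF4E binding to eIF4GI seen as loss of FRET.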 The format is functional. Background: Time-resolved FRET reads energy transfer from a long-lived donor to a nearby acceptor.
A further assay deals with SUMO E1/E2 (Homo sapiens, UniProt P63279+Q9UBE0+Q9UBT2). Briefly: SAR analysis of SUMOylation using HTRF in an in-Vitro dose response assay. [Related pubchem assays (depositor defined):AID2006, AID2011, AID2018, AID2069, AID2658]. It counts as functional.
In the next assay the target is Hexokinase HKDC1 (Homo sapiens, UniProt Q2TB90). The experiment in a line: HKDC1 hexokinase inhibitors, dose response, biochemical, W721R variant (AID 504729). It counts as functional.
The target of a further assay is Phosphomannomutase 2 (Homo sapiens, UniProt O15305). Briefly: Counter screen SAR assay for PMM2 inhibitors via a fluorescence intensity assay. [Related pubchem assays (depositor defined):AID1545, AID1574]. (In general: A counterscreen serves to expose hits that act by an unwanted route or on another target.)
The target of assay [11] is T7, Mannose-6-phosphate isomerase (Homo sapiens, UniProt P34949).
T7 sequence (P34949 whole entry): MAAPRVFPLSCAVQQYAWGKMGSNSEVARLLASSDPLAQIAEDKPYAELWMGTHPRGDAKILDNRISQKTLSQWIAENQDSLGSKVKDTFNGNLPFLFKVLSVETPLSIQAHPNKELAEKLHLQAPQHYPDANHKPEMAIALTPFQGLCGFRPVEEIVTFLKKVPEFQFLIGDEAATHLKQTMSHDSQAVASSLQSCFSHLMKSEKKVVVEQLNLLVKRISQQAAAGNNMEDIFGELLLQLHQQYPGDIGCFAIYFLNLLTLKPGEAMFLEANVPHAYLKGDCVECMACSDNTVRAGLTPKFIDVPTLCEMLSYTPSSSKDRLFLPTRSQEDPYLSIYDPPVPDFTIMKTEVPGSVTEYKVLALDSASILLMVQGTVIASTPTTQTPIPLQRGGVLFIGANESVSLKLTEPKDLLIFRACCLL
The experiment in a line: PMI enzyme inhibitors, confirmation, biochemical, fluorescence intensity (AID 1535).

Assay [12] is described as follows: Fluorescence Cell-Based Dose Response to Identify Inhibitors of Thrombin Receptor-Activating Peptide SFLLRN-Mediated P-Selectin Induction on Platelets. [Related pubchem assays: 1663 (Primary HTS), 1889 (retest at dose ), 1891 (counterscreen), 1678 (Project Summary)]. The format is functional.
Assay [13] addresses Luciferin 4-monooxygenase (Photinus pyralis, UniProt P08659). Briefly: firefly luciferase enzyme inhibitors, dose response, biochemical, luminescence (AID 1891).
Assay [14] deals with Lysine-specific demethylase 4C (Homo sapiens, UniProt Q9H3R0). Briefly: GASC-1 (JMJD2C) histone demethylase inhibitors, dose response, biochemical, DELFIA europium, cherry-picked samples (AID 488835). The format is functional.
Assay [15] is described as follows: Luminescence Cell-Based Dose Confirmation HTS to Identify Inhibitors of Platelet Dense Granule Release. [Related pubchem assays: 1663 (Primary HTS), 1678 (Summary of Project)]. It counts as functional.

T4 sequence (Q9UBE0 whole entry): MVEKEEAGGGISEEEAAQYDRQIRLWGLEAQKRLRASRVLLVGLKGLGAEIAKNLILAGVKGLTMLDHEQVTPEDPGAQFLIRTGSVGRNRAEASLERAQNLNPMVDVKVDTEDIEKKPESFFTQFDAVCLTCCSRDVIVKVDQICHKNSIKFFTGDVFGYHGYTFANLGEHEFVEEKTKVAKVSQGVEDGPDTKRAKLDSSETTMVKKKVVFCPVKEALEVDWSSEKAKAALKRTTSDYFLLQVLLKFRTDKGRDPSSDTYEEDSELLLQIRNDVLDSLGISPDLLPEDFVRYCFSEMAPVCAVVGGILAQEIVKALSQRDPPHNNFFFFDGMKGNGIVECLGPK
T4 sequence (Q9UBT2 whole entry): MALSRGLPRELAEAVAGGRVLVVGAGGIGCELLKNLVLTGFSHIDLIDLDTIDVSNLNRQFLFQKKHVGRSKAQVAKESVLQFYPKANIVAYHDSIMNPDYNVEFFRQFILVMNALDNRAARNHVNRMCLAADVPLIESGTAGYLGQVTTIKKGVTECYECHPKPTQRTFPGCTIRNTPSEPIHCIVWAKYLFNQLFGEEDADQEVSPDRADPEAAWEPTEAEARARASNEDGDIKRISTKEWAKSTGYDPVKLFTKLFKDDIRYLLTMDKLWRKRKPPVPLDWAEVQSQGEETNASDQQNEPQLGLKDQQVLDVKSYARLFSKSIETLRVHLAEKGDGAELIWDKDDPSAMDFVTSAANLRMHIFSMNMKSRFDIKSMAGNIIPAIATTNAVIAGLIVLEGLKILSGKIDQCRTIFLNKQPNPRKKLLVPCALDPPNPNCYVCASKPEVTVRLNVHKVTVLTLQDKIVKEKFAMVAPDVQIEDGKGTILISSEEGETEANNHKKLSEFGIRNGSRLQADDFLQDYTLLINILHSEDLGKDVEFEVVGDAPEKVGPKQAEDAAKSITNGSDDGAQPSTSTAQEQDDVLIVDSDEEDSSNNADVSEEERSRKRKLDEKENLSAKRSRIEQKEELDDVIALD
T3 sequence (P41143 whole entry): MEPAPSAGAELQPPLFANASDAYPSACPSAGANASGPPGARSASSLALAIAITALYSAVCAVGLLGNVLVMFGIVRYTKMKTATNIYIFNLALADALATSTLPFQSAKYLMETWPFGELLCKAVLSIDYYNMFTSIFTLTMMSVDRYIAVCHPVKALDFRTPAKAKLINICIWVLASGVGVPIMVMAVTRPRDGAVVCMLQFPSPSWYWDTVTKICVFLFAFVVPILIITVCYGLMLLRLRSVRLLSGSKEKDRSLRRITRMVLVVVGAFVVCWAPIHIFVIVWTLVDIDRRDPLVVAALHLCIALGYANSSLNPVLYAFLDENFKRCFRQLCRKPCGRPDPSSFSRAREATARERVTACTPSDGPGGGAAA
T2 sequence (P49327 whole entry, the tested form may be a part): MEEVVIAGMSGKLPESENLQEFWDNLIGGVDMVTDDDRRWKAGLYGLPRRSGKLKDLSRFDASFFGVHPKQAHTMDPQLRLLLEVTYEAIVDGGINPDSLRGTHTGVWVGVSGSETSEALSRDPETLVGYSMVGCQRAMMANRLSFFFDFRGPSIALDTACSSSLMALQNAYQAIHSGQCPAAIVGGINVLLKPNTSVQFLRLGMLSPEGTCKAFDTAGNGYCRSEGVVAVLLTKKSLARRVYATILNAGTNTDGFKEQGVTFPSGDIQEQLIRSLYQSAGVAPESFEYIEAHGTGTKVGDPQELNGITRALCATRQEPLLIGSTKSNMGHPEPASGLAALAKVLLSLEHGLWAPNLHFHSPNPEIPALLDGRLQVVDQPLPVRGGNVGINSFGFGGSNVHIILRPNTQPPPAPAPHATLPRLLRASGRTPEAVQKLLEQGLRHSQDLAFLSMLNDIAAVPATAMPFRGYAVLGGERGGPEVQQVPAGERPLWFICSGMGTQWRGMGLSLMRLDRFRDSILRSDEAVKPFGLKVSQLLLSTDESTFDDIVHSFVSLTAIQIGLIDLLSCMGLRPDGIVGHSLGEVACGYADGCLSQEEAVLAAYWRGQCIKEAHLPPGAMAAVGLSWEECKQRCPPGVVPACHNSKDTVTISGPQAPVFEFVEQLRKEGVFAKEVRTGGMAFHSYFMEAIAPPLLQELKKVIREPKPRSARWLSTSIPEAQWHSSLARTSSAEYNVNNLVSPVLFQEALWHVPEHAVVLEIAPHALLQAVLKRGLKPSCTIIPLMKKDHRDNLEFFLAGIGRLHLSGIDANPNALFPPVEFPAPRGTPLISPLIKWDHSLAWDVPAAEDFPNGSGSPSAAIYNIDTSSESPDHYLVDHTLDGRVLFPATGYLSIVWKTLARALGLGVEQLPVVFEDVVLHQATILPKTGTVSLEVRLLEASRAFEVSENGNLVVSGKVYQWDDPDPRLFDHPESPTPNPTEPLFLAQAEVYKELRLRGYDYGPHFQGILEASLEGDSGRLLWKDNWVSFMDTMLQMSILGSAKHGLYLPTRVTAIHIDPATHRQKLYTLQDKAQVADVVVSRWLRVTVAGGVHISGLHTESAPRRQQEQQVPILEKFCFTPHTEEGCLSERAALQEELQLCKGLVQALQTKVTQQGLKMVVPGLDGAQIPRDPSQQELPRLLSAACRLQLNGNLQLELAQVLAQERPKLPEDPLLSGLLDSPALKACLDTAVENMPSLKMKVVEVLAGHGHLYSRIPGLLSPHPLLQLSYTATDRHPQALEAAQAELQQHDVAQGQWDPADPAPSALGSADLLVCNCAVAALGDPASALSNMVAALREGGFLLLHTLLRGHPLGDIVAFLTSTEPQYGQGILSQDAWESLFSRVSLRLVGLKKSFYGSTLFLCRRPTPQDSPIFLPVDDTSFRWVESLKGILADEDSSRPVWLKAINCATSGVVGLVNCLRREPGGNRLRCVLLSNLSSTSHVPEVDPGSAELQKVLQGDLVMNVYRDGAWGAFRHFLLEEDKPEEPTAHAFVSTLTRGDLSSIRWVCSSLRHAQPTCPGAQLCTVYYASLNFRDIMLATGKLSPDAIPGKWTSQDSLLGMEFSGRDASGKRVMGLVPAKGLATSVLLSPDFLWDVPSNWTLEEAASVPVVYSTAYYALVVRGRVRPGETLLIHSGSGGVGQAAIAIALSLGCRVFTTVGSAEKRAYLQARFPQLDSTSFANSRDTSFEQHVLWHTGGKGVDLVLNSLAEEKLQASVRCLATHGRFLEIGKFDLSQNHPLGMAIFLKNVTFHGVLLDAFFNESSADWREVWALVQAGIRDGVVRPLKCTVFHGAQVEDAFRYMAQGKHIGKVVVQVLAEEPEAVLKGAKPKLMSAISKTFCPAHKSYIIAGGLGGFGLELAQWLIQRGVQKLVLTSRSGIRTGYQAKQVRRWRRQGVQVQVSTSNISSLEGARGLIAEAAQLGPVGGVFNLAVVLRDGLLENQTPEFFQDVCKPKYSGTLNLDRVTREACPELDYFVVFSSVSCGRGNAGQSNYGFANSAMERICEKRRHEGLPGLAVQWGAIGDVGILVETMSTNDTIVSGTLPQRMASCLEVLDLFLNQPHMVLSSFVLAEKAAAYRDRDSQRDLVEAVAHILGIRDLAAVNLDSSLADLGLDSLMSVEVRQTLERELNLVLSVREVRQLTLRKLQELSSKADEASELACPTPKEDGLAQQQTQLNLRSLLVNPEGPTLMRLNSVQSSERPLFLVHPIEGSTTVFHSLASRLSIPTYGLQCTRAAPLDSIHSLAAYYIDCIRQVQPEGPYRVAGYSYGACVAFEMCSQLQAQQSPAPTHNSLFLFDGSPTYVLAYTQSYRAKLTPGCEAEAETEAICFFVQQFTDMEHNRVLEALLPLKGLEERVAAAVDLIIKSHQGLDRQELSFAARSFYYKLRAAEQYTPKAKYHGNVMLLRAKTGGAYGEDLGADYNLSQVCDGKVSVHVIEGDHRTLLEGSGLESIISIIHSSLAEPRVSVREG
T1 sequence (P41145 whole entry, the tested form may be a part): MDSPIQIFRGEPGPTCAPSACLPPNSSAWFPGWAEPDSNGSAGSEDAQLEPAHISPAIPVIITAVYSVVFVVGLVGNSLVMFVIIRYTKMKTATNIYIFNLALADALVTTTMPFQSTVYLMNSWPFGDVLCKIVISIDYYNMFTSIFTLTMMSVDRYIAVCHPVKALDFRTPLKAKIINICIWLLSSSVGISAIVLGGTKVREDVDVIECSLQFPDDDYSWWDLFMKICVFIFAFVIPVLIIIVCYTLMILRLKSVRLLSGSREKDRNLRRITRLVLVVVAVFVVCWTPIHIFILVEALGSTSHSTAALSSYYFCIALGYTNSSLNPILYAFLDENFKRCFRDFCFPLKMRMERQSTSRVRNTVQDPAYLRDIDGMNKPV
Sequence of SUMO E1/E2 (Q9UBE0 whole entry): as the sequence (Q9UBE0 whole entry) above
Sequence of SUMO E1/E2 (Q9UBT2 whole entry): as the sequence (Q9UBT2 whole entry) above
Sequence of SUMO E1/E2 (P63279 whole entry): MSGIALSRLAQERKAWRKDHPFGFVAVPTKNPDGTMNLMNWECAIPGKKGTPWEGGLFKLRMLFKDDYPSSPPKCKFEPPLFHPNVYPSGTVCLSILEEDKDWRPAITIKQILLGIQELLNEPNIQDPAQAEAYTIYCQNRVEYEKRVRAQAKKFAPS
Sequence of Luciferin 4-monooxygenase (P08659 whole entry): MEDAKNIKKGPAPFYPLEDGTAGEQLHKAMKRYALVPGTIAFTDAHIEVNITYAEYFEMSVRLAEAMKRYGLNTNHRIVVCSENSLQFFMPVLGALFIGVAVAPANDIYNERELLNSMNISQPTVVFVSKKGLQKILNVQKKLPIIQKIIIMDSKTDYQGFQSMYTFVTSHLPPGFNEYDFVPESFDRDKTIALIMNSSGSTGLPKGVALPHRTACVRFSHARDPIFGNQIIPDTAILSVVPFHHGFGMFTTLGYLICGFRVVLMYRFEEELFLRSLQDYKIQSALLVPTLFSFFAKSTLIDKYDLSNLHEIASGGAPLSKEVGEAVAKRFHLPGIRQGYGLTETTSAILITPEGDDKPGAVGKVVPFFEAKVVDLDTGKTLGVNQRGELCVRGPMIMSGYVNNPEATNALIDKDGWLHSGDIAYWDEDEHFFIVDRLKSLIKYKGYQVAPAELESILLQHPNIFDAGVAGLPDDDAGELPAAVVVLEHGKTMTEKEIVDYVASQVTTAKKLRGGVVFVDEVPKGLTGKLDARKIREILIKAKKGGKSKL

`O=C1C2ON(c3ccccc3)C(c3cccnc3)C2C(=O)N1c1ccc(Cl)c(Cl)c1` (stereo not given): the pEC50 in [1] is 4.58; in assay [4], less than 4.46. For the same compound, the results for the IC50 (on Fatty acid synthase [2]; in [3]; at Fatty acid synthase [5]) were 9.19 µM (active), > 32 µM (inactive) and 8.26 µM (active), respectively. The EC50 (at Mu-type opioid receptor; in [6]) was > 32 µM (inactive) each time.
As for `O=C(/C=C/c1cccs1)Nc1scc(-c2ccccc2)c1C(=O)O`, the IC50 at SUMO-activating enzyme [7] was 9.84 µM (active); at SUMO-activating enzyme [9], 2.74 µM (active); in assay [10] it was 5.76 µM (active); at SUMO E1/E2, 6.11 µM (active); at Hexokinase HKDC1, 7 µM (active). Further, the EC50 at Protein RecA was 10.6 µM (active). Besides, the AC50 in assay [8] was 23.3 µM (active).
For the compound `Cc1cccc(/N=c2\ssnc2Cl)c1`, the IC50 (at Phosphomannomutase 2; in assay [11]) was > 100 µM (inactive) each time.
Consider `COc1ccc(/C=N/N(C)c2cc(=O)n(C)c(=O)[nH]2)cc1OC`, for which the values for the EC50 in assay [12], in assay [13] and in assay [15] were < 1 µM (active), > 112 µM (not active) and 0.693 µM (active), respectively. The AC50 in [14] is 17.8 µM (active).

Usually pEC50 stands for the EC50 on a negative log10 scale, so that one unit is a factor of ten. For orientation: IC50 means the concentration at which inhibition is half-maximal. In general, EC50 refers to the midpoint of the concentration-response curve. The term AC50 denotes the concentration at which the activity in the assay is half-maximal.
